From US20250171516A1, “PEPTIDE ACIDS AS A GLP1R AGONIST AND ANTIBODY-DRUG CONJUGATES THEREOF” (Regeneron Pharmaceuticals, Inc., priority 2023, published 2025)
Values joined by “and” are separate entries in the source; they are usually repeats but may differ in a detail not shown here. Equal entries are not always repeated. Non-standard residues stand in square brackets, D forms with d. Groups on a side chain read outwards from the residue. No end group written: not given here. M3190 payload = not defined here; AA10 = not defined here; AA1 = not defined here; AA2 = not defined here; AA6 = not defined here; AA9 = not defined here

Assays:
[1] = molecular target: T1, GLP-1R (Homo sapiens, UniProt P43220); experiment: GLP-1R cAMP assay of peptides (Tables 10, 14, 15); format: cell-based
[2] = Metabolite study in human liver S9 (high resolution LC-MS); format: in vitro ADME
Method: Metabolite studies were conducted using Q-M3190 and Q-6009 (Q is Glutamine).
Liver S9 is the supernatant obtained by grinding and centrifuging the liver cells. The enzymes content is lower compared to Hepatocytes. It mainly contains CYP enzymes and some biphasic enzymes (but no biphasic coenzyme), so additional coenzyme (NADPH and UDPGA, etc.) is needed to mediate the biphasic reaction.

[3] = molecular target: T1, GLP-1R; experiment: CRE-Luc cAMP responsive luciferase reporter assay in HEK293/CRE-Luc/hGLP1R cells; format: cell-based; parameters: engineered to express full-length human GLP1R (GenBank: AAI12127.1) (HEK293/CRE-Luc/hGLP1R); expressed in transfected cells; host or cells: HEK293/CRE-Luc (HEK293/FSC11/pCDNA3.1 + GLP1R, ACL6822); conditions: for Emax: HEK293, read-out: Emax (% GLP-1), CRE-dependent reporter activity, HEK293/CRE-Luc/hGLP1R
Excerpt: To test the activity of GLP1R agonist linker-payloads (LPs) and anti-GLP1R antibody-tethered ligands (ATLs) of the invention, a cell-based cAMP responsive luciferase reporter assay was developed. To generate the assay cell line, the firefly luciferase gene was placed under the control of four copies of a cAMP response element (4×CRE) located upstream of a minimal promoter and transfected into HEK293 cells and referred to herein as HEK293/CRE-Luc cells. HEK293/CRE-Luc cells were then engineered to express full-length human GLP1R (GenBank: AAI12127.1) (HEK293/CRE-Luc/hGLP1R).
(§1) For all assays, cells were seeded into 384-well plates (Falcon #353988) at 6,000 cells/well in assay media (Opti-MEM, 1% FBS, 1×Penicillin-Streptomycin) and incubated overnight at 37° C. Serial dilutions of the anti-GLP1R ATLs and non-binding control ATLs were performed in assay media. Serial dilutions of linker-payloads (LPs) were performed in 100% DMSO (ATCC, #4-X-5), followed by 1:100 dilution in assay media. Test articles were added to cells (1:5 dilution) using VIAFLO 384 (Integra) with the last well in each serial dilution series serving as a blank control containing only assay media for ATLs or assay media with 0.2% DMSO for LPs. The blank was plotted as a continuation of the serial dilution.
For the CRE-Luc assay, after a 5-hours incubation at 37° C., luciferase activity was determined by addition of ONE-Glo reagent (Promega, #E6130) followed by measurement of relative light units (RLUs) on EnVision Plate Reader (Perkin Elmer).
(§2) EC50 values for luminescence assays were determined using a four-parameter logistic equation over a 12-point dose response curve (GraphPad Prism).

[4] = molecular target: T1, GLP-1R; experiment: b-arrestin 2 recruitment enzyme fragment complementation assay in HEK293/b-arrestin2/hGLP1R cells; format: cell-based; parameters: The full-length human GLP1R (NP_002053.3) with a C-terminus fusion to a small b-gal fragment called enzyme donor or ProLink (PK); host or cells: HEK293/b-arrestin2-EA (HEK293/Barrestin clone 2C6/hGLP1R-Prolink1 high sorted, ACL21687)
Excerpt: To test the recruitment of b-arrestin 1 and b-arrestin 2 to GLP1R upon receptor activation, two enzyme fragment complementation assays were developed. To generate the assay cell lines, b-arrestin 1 fused to the b-galactosidase (b-gal) reporter fragment called enzyme acceptor (EA) (i.e., b-arrestin1-EA) or b-arrestin 2 fused to the b-gal reporter fragment EA (i.e., b-arrestin2-EA) were transduced into HEK293 cells using PathHunter b-Arrestinl Retroparticles (DiscoverX, #83-OT-TB-N-01) or PathHunter b-Arrestin2 Retroparticles (DiscoverX, #93-1087), respectively. The full-length human GLP1R (NP_002053.3) with a C-terminus fusion to a small b-gal fragment called enzyme donor or ProLink (PK) (i.e., hGLP1R-PK) was then engineered into HEK293/b-arrestinl-EA cells and HEK293/b-arrestin2-EA cells to generate the cell lines referred herein as HEK293/b-arrestin1/hGLP1R and HEK293/b-arrestin2/hGLP1R. Recruitment of b-arrestin 1 or b-arrestin 2 to GLP1R in these reporter cell lines brings both b-gal fragments (EA and PK) into close proximity, leading to reconstitution of a fully functional enzyme capable of hydrolyzing a substrate and generating a chemiluminescent signal.
as §1
For b-arrestin 1 and b-arrestin 2 recruitment assays, after a 1-hour incubation at 37° C., PathHunter Detection Reagent (Eurofins DiscoverX, #93-0001) was added to the wells followed by a 1-hour incubation at room temperature. RLUs were measured on EnVision Plate Reader (Perkin Elmer).
as §2

[5] = pH stability (special liability); format: physicochemical
[6] = physchem
[7] = Solubility in water
[8] = system: GLP1R humanized mouse; experiment: In vivo conversion of c-M3190 ATL to c-M6009 after s.c. dosing; conditions: 7 days
Method: From a tryptic digestion of the parent M3190-ATL, peptide c-M3190 is a peptide and their structures/sequences were determined by high resolution mass spectroscopy as shown below.
11.4 Syntheses and Characterization of Peptide Compounds Identified from M3190 Metabolite Study

[9] = molecular target: T2, GLP-1R of the cAMP assay of Tables 10, 14 and 15 (human, UniProt P43220 24-463, limits assumed); experiment: cell-based or functional assay
[10] = molecular target: T2, GLP-1R of the cAMP assay of Tables 10, …; experiment: cell-based or functional assay; remark: listed apart in the source
[11] = molecular target: full-length human GLP1R (GenBank: AAI12127.1) expressed on HEK293/CRE-Luc/hGLP1R cells (human, UniProt P43220 24-463); experiment: cell-based or functional assay
[12] = molecular target: hGLP1R-PK: full-length human GLP1R (NP_002053.3) with a C-terminus fusion to ProLink (PK), on … (human, UniProt P43220 24-463); experiment: cell-based or functional assay
[13] = metabolites of Q-M3190 at 4 hours in human liver S9
[14] = HEK293, read-out: Emax (% GLP-1), b-Arrestin2 recruitment, HEK293/b-arrestin2/hGLP1R
[15] = read-out: b-arrestin 2 recruitment Emax relative to GLP-1, HEK293/b-arrestin2/hGLP1R cells
[16] = Table 10, read-out: GLP-1R CAMP EC50
[17] = metabolites of Q-M6009 at 4 hours in human liver S9

T1 sequence (P43220 24-463): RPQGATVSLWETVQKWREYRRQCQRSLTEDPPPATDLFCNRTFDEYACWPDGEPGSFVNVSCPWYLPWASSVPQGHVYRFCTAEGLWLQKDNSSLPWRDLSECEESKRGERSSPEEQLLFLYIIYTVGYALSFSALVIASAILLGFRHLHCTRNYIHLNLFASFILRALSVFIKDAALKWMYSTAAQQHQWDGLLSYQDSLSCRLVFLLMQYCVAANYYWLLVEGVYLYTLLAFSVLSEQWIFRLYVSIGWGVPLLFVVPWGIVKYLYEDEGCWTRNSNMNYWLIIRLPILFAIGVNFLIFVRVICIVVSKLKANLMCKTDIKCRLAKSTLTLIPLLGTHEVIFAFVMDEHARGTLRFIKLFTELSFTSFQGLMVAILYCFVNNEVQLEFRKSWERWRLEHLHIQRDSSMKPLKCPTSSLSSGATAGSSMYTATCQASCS

## CCc1cc(OCCCCn2cc(COCCOCCOCCOCCOCCOCCOCCOCCN)nn2)ccc1-c1ccc(C[C@H](NC(=O)[C@H](CC(=O)O)NC(=O)[C@H](CO)NC(=O)[C@@H](NC(=O)[C@](C)(Cc2ccccc2F)NC(=O)[C@@H](NC(=O)CNC(=O)[C@H](Cc2nn[nH]n2)NC(=O)C(C)(C)C(=O)NCCc2cnc[nH]2)[C@@H](C)O)[C@@H](C)O)C(=O)N[C@@H](CCCc2cc(C)cc(C)c2)C(N)=O)cc1 [M3190]
[1]; Table 14, peptide amides, read-out: cAMP EC50
  EC50: 0.318 nM
[2]; [13]
  Relative Abundance (% Total): 2.76 % Total
[3]
  Emax: 96.3%
[3]; HEK293/CRE-Luc/hGLP1R cells, independent experiments A, B, C, read-out: EC50 (M), CRE-dependent reporter activity, HEK293/CRE-Luc/hGLP1R
  EC50: 5.76e-10 M
[3]; HEK293/CRE-Luc/hGLP1R cells, read-out: CRE-dependent luciferase reporter activity EC50
  EC50: 5.76e-10 M
[4]; [14]
  Emax: 128%
[4]; HEK293/b-arrestin2/hGLP1R cells, read-out: b-arrestin 2 recruitment EC50
  EC50: 35.1 nM
[4]; [15]
  Emax: 128%

## CCc1cc(OCCCCn2cc(COCCOCCOCCOCCOCCOCCOCCOCCN)nn2)ccc1-c1ccc(C[C@H](NC(=O)[C@H](CC(=O)O)NC(=O)[C@H](CO)NC(=O)[C@@H](NC(=O)C(C)(Cc2ccccc2F)NC(=O)[C@@H](NC(=O)CNC(=O)[C@H](Cc2nn[nH]n2)NC(=O)C(C)(C)C(=O)NCCc2cnc[nH]2)[C@@H](C)O)[C@@H](C)O)C(=O)N[C@@H](CCCc2cc(C)cc(C)c2)C(=O)O)cc1 (stereo partly drawn) [M6009]
[1]; Table 10
  GLP-1R CAMP Max: 139.7%
[1]; [16]
  EC50: 2.23 nM
[2]; Q-M6009 in human liver S9, text
  amount remaining / detected after incubation of Q-M6009: 93%
[2]; [13]
  Relative Abundance (% Total): 2.34 % Total
[2]; [17]
  Relative Abundance (% Total): 13.14 % Total
[5]
  Special liability: stable at pH <3 or pH >11, and unstable at PH <1
[6]
  solubility: > 70000 µg/mL and > 30000 µM
[3]
  Emax: 92.1%
[3]; HEK293/CRE-Luc/hGLP1R cells
  CRE-dependent luciferase reporter activity (in words): comparable activities as that of M3190
[4]; HEK293/b-arrestin2/hGLP1R cells
  b-arrestin 2 recruitment (in words): comparable activities as that of M3190

## CCc1cc(OCCCCn2cc(COCCOCCOCCOCCOCCOCCOCCOCCNC(=O)CCC(N)C(=O)O)nn2)ccc1-c1ccc(C[C@H](NC(=O)[C@H](CC(=O)O)NC(=O)[C@H](CO)NC(=O)[C@@H](NC(=O)C(C)(Cc2ccccc2F)NC(=O)[C@@H](NC(=O)CNC(=O)[C@H](Cc2nn[nH]n2)NC(=O)C(C)(C)C(=O)NCCc2cnc[nH]2)[C@@H](C)O)[C@@H](C)O)C(=O)N[C@@H](CCCc2cc(C)cc(C)c2)C(N)=O)cc1 (stereo partly drawn) [M6067]
[2]; [13]
  Relative Abundance (% Total): 56.51 % Total

## CCc1cc(OCCCCn2cc(COCCOCCOCCOCCOCCOCCOCCOCCN)nn2)ccc1-c1ccc(C[C@H](NC(=O)[C@H](CC(=O)O)NC(=O)[C@H](CO)NC(=O)[C@@H](NC(=O)C(C)(Cc2ccccc2F)NC(=O)[C@@H](NC(=O)CNC(=O)[C@H](Cc2nnn[nH]2)NC(=O)C(C)(C)C(=O)NCCc2cnc[nH]2)[C@@H](C)O)[C@@H](C)O)C(=O)O)cc1 (stereo partly drawn) [M6324]
[1]
  EC50: 882 nM
[1]; Table 10
  GLP-1R CAMP Max: 53.33%
[7]
  solubility: > 70000 µg/mL and > 30000 µM
[3]
  Emax: 91.6%
[4]
  EC50: > 1000 nM
[4]; [14]
  Emax: 0.7%
[4]; [15]
  Emax: 0.7%

## CCc1cc(OCCCCn2cc(COCCOCCOCCOCCOCCOCCOCCOCCNC(=O)CC[C@H](N)C(=O)O)nn2)ccc1-c1ccc(C[C@H](NC(=O)[C@H](CC(=O)O)NC(=O)[C@H](CO)NC(=O)[C@@H](NC(=O)C(C)(Cc2ccccc2F)NC(=O)[C@@H](NC(=O)CNC(=O)[C@H](Cc2nn[nH]n2)NC(=O)C(C)(C)C(=O)NCCc2cnc[nH]2)[C@@H](C)O)[C@@H](C)O)C(=O)N[C@@H](CCCc2cc(C)cc(C)c2)C(=O)O)cc1 (stereo partly drawn) [Q-M6009]
[1]; Table 10
  GLP-1R CAMP Max: 106.2%
[1]; [16]
  EC50: 3.21 nM
[2]; [13]
  Relative Abundance (% Total): 38.40 % Total
[2]; [17]
  Relative Abundance (% Total): 79.84 % Total

## c-M3190 ATL: "Peptide C-M3190 identified from metabolite studies of M3190-antibody conjugate"; "From a tryptic digestion of the parent M3190-ATL" (LLQ(M3190 payload)GSGDIQMTQSPSSVSASVGDR; reading uncertain)
[8]
  conversion of c-M3190 ATL to c-M6009: slowly converted to c-M6009 after 7 days

B1: Q-M3190 (AA10-AA9-AA8-AA7-AA6-AA5-AA4-AA3-(Q-L)AA2-AA1-NH2) (peptide)
peptide: [AA10][AA9]GT[AA6]TSD[AA2]([Leu-Gln])[AA1]-NH2
modifications: reading uncertain; also: printed as Q-M3190 (AA10-AA9-AA8-AA7-AA6-AA5-AA4-AA3-(Q-L)AA2-AA1-NH2)
[9]
  cAMP EC50 (nm): 1.07 nm

B2: M6324 (AA10-AA9-AA8-AA7-AA6-AA5-AA4-AA3-(L)AA2-OH) (peptide)
peptide: [AA10][AA9]GT[AA6]TSD[AA2](Leu)-OH
modifications: reading uncertain; also: printed as M6324 (AA10-AA9-AA8-AA7-AA6-AA5-AA4-AA3-(L)AA2-OH)
[10]
  GLP-1R CAMP EC50: 882 nM
  GLP-1R CAMP Max (%): 53.3%
[11]
  EC50 (M), CRE-dependent reporter activity, HEK293/CRE-Luc/hGLP1R: 2.93e-07 M
  Emax (% GLP-1), CRE-dependent reporter activity, HEK293/CRE-Luc/hGLP1R: 91.6 % GLP-1
[12]
  EC50 (M), b-Arrestin2 recruitment, HEK293/b-arrestin2/hGLP1R: > 1e-06 M
  Emax (% GLP-1), b-Arrestin2 recruitment, HEK293/b-arrestin2/hGLP1R: 0.7 % GLP-1

B3: M6009 (AA10-AA9-AA8-AA7-AA6-AA5-AA4-AA3-(L)AA2-AA1-OH) (peptide)
peptide: [AA10][AA9]GT[AA6]TSD[AA2](Leu)[AA1]-OH
modifications: reading uncertain; also: also named NH2-PEG8-triazole-P8 acid, printed as M6009 (AA10-AA9-AA8-AA7-AA6-AA5-AA4-AA3-(L)AA2-AA1-OH)
[10]
  GLP-1R CAMP EC50: 2.23 nM
  GLP-1R CAMP Max (%): 140%
[11]
  EC50 (M), CRE-dependent reporter activity, HEK293/CRE-Luc/hGLP1R: 4.64e-10 M
  Emax (% GLP-1), CRE-dependent reporter activity, HEK293/CRE-Luc/hGLP1R: 92.1 % GLP-1
